Test results from PubChem BioAssay AID330 (DTP/NCI, 2004).
Values joined by “and” are separate entries in the source; they are usually repeats but may differ in a detail not shown here. Equal entries are not always repeated. Toxic doses and inconclusive results are not listed.

Test system: P388 leukemia ip, CD2F1 mice, survival T/C
Test: NCI In Vivo Anticancer Drug Screen. Data for tumor model P388 Leukemia (intraperitoneal) in CD2F1 (CDF1) mice
Conditions: endpoint: median survival time, higher = longer survival
Summary of the method: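 Mice carrying the transplanted tumor received test compound or vehicle. Survival was recorded in each group, and the value is the treated-group measurement divided by that of the vehicle-treated control group.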

[1] = dose: 50.0 mg/kg/injection, schedule: Q01DX009 (ip), vehicle: Klucel (hydroxypropylcellulose) (HPC)
[2] = dose: 100.0 mg/kg/injection, schedule: Q01DX009 (ip), vehicle: Klucel (hydroxypropylcellulose) (HPC)
[3] = dose: 200.0 mg/kg/injection, schedule: Q01DX009 (ip), vehicle: Klucel (hydroxypropylcellulose) (HPC)
[4] = dose: 50.0 mg/kg/injection, schedule: Q01DX005 (ip), vehicle: saline with Tween-80
[5] = dose: 100.0 mg/kg/injection, schedule: Q01DX005 (ip), vehicle: saline with Tween-80
[6] = dose: 200.0 mg/kg/injection, schedule: Q01DX005 (ip), vehicle: saline with Tween-80
[7] = dose: 50.0 mg/kg/injection, schedule: Q01DX009 (ip), vehicle: saline
[8] = dose: 50.0 mg/kg/injection, schedule: Q01DX005 (ip), vehicle: Klucel (hydroxypropylcellulose) (HPC)
[9] = dose: 100.0 mg/kg/injection, schedule: Q01DX005 (ip), vehicle: Klucel (hydroxypropylcellulose) (HPC)
[10] = dose: 200.0 mg/kg/injection, schedule: Q01DX005 (ip), vehicle: Klucel (hydroxypropylcellulose) (HPC)

With C1OC1CN1CCN(CC2CO2)CC1 (stereo not given) the T/C (dose: 4.0 mg/kg/injection, schedule: Q01DX009 (ip), vehicle: saline) was 124 % of control, the T/C (dose: 8.0 mg/kg/injection, schedule: Q01DX009 (ip), vehicle: saline) was 150 % of control and the T/C (dose: 16.0 mg/kg/injection, schedule: Q01DX009 (ip), vehicle: saline) was 196 % of control.
For CCCCCCN1CCS(=O)(=O)CC1, the T/C [1] was 91 % of control, the T/C [2] was 94 % of control and the T/C [3] was 90 % of control.
With C=CC(=O)Oc1ccccc1/C=C/C(=O)CCCCCC the T/C [4] was 98 % of control, the T/C [5] was 107 % of control and the T/C [6] was 105 % of control.
In the case of CCCCC1CC=CC(NC#N)=N1 (stereo not given), the T/C (dose: 50.0 mg/kg/injection, schedule: Q01DX009 (ip), vehicle: saline with Tween-80) is reported as 100 % of control, the T/C (dose: 100.0 mg/kg/injection, schedule: Q01DX009 (ip), vehicle: saline with Tween-80) is reported as 104 % of control and the T/C (dose: 200.0 mg/kg/injection, schedule: Q01DX009 (ip), vehicle: saline with Tween-80) is reported as 115 % of control.
With COC(=O)C1CC(OC(C)=O)C(=O)[C@H]2C1(C)CC[C@H]1C(=O)O[C@H](c3ccoc3)CC12C (stereo not given in full) the T/C (dose: 19.0 mg/kg/injection, schedule: Q01DX005 (ip), vehicle: Klucel (hydroxypropylcellulose) (HPC)) was 94 % of control, the T/C (dose: 38.0 mg/kg/injection, schedule: Q01DX005 (ip), vehicle: Klucel (hydroxypropylcellulose) (HPC)) was 87 % of control and the T/C (dose: 76.0 mg/kg/injection, schedule: Q01DX005 (ip), vehicle: Klucel (hydroxypropylcellulose) (HPC)) was 90 % of control.
CCC(CCC(C)C1CCC2C3CC=C4CC(O)CCC4(C)C3CCC12C)C(C)C (stereo not given) (tested in a mixture with another compound) was tested, and the T/C [1] was 105 % of control and the T/C [2] was 90 % of control.
With COCCOCn1cccc1Cc1ccc(OC)cc1 the T/C (dose: 100.0 mg/kg/injection, schedule: Q01DX001 (ip), vehicle: distilled water + Tween-80 + alcohol) was 100 % of control, the T/C (dose: 200.0 mg/kg/injection, schedule: Q01DX001 (ip), vehicle: distilled water + Tween-80 + alcohol) was 105 % of control and the T/C (dose: 400.0 mg/kg/injection, schedule: Q01DX001 (ip), vehicle: distilled water + Tween-80 + alcohol) was 96 % of control.
NS(=O)(=O)c1cccnc1Nc1cccc(Cl)c1Cl was tested, and the T/C [7] was 100 % of control, the T/C (dose: 100.0 mg/kg/injection, schedule: Q01DX009 (ip), vehicle: saline) was 100 % of control and the T/C (dose: 200.0 mg/kg/injection, schedule: Q01DX009 (ip), vehicle: saline) was 96 % of control.
For NC(=O)c1ccnn1C1OC(CO)C(O)C1O (stereo not given), the T/C (dose: 32.0 mg/kg/injection, schedule: Q01DX002 (ip), vehicle: saline) was 107 % of control and 116 % of control, the T/C (dose: 64.0 mg/kg/injection, schedule: Q01DX002 (ip), vehicle: saline) was 104 % of control and 112 % of control and the T/C (dose: 128.0 mg/kg/injection, schedule: Q01DX002 (ip), vehicle: saline) was 107 % of control.
For C[N+](C)(C)CN1C(=O)c2ccccc2C1=O, the T/C (dose: 50.0 mg/kg/injection, schedule: Q04DX003 (ip), vehicle: saline) was 100 % of control, the T/C (dose: 100.0 mg/kg/injection, schedule: Q04DX003 (ip), vehicle: saline) was 104 % of control and the T/C (dose: 200.0 mg/kg/injection, schedule: Q04DX003 (ip), vehicle: saline) was 95 % of control.
With Clc1ccc(/C=C/c2ccc3ccccc3n2)cc1 the T/C [1] was 109 % of control, the T/C [2] was 102 % of control and the T/C [3] was 107 % of control. The T/C (dose: 400.0 mg/kg/injection, schedule: Q01DX009 (ip), vehicle: Klucel (hydroxypropylcellulose) (HPC)) was 93 % of control.
For O=[N+]([O-])c1ccc(N=Nc2ccc(N(CCCl)CCCl)cc2)c([N+](=O)[O-])c1, the T/C (dose: 100.0 mg/kg/injection, schedule: Q01DX001 (ip), vehicle: Klucel (hydroxypropylcellulose) (HPC)) was 106 % of control, the T/C (dose: 200.0 mg/kg/injection, schedule: Q01DX001 (ip), vehicle: Klucel (hydroxypropylcellulose) (HPC)) was 108 % of control and the T/C (dose: 400.0 mg/kg/injection, schedule: Q01DX001 (ip), vehicle: Klucel (hydroxypropylcellulose) (HPC)) was 103 % of control.
CC(NC(=O)C(c1ccccc1)c1ccccc1)C(=O)O (stereo not given) was tested, and the T/C [8] was 97 % of control, the T/C [9] was 107 % of control and the T/C [10] was 97 % of control.
With CCOC(=O)N1C=CC(=C2C(=C3C=CN(C(=O)OCC)C=C3)C(=C3C=CN(C(=O)OCC)C=C3)C2=C2C=CN(C(=O)OCC)C=C2)C=C1 the T/C (dose: 25.0 mg/kg/injection, schedule: Q01DX005 (ip), vehicle: saline with Tween-80) was 100 % of control, the T/C [4] was 101 % of control and 102 % of control and 117 % of control and the T/C [5] was 100 % of control and 105 % of control and 109 % of control. For the same molecule, the T/C [6] was 99 % of control.
With C=CCCCC(=O)CCCCO the T/C (dose: 50.0 mg/kg/injection, schedule: Q01DX009 (ip), vehicle: other) was 95 % of control, the T/C (dose: 100.0 mg/kg/injection, schedule: Q01DX009 (ip), vehicle: other) was 107 % of control and the T/C (dose: 200.0 mg/kg/injection, schedule: Q01DX009 (ip), vehicle: other) was 101 % of control.
CC(=O)c1cc[c]([Sn]([CH3])([Cl])[c]2ccccc2)cc1 (stereo not given) was tested, and the T/C (dose: 7.5 mg/kg/injection, schedule: Q01DX005 (ip), vehicle: Klucel (hydroxypropylcellulose) (HPC)) was 100 % of control, the T/C (dose: 15.0 mg/kg/injection, schedule: Q01DX005 (ip), vehicle: Klucel (hydroxypropylcellulose) (HPC)) was 107 % of control and the T/C (dose: 60.0 mg/kg/injection, schedule: Q01DX005 (ip), vehicle: Klucel (hydroxypropylcellulose) (HPC)) was 108 % of control.
For O=C1OCCOCCOCCOCCOC(=O)c2cccc1c2, the T/C (dose: 100.0 mg/kg/injection, schedule: Q04DX003 (ip), vehicle: suspension in saline) was 100 % of control, the T/C (dose: 200.0 mg/kg/injection, schedule: Q04DX003 (ip), vehicle: suspension in saline) was 104 % of control and the T/C (dose: 400.0 mg/kg/injection, schedule: Q04DX003 (ip), vehicle: suspension in saline) was 99 % of control.
COC(=O)C1=C/CCCN/C=C\1C(=O)OC was tested, and the T/C (dose: 100.0 mg/kg/injection, schedule: Q04DX003 (ip), vehicle: Klucel (hydroxypropylcellulose) (HPC)) was 97 % of control, the T/C (dose: 200.0 mg/kg/injection, schedule: Q04DX003 (ip), vehicle: Klucel (hydroxypropylcellulose) (HPC)) was 97 % of control and the T/C (dose: 400.0 mg/kg/injection, schedule: Q04DX003 (ip), vehicle: Klucel (hydroxypropylcellulose) (HPC)) was 98 % of control.
With COc1cc(C2c3cc(O)c(OC)cc3CC(C(N)=O)C2CO)ccc1O (stereo not given) the T/C [4] was 100 % of control, the T/C [5] was 100 % of control and the T/C [6] was 98 % of control.
For CN(C)C(=O)C1CCC1, the T/C (dose: 100.0 mg/kg/injection, schedule: Q04DX003 (ip), vehicle: saline with Tween-80) was 95 % of control, the T/C (dose: 200.0 mg/kg/injection, schedule: Q04DX003 (ip), vehicle: saline with Tween-80) was 100 % of control and the T/C (dose: 400.0 mg/kg/injection, schedule: Q04DX003 (ip), vehicle: saline with Tween-80) was 100 % of control.
For CCN(C(=O)CNCC(C)C)c1ccc(C)c(Cl)c1, the T/C (dose: 50.0 mg/kg/injection, schedule: Q01DX005 (ip), vehicle: saline) was 100 % of control and the T/C (dose: 100.0 mg/kg/injection, schedule: Q01DX005 (ip), vehicle: saline) was 99 % of control.
In the case of c1ccc(Cn2c(-c3ccccc3)c[n+]3ccsc23)cc1, the T/C (dose: 3.12 mg/kg/injection, schedule: Q01DX009 (ip), vehicle: saline with Tween-80) is reported as 117 % of control, the T/C (dose: 6.25 mg/kg/injection, schedule: Q01DX009 (ip), vehicle: saline with Tween-80) is reported as 115 % of control and 94 % of control and the T/C (dose: 12.5 mg/kg/injection, schedule: Q01DX009 (ip), vehicle: saline with Tween-80) is reported as 108 % of control and 117 % of control.
With CCCCc1ccc(NC(=O)On2c3ccccc3c3ccccc32)cc1 the T/C [8] was 96 % of control, the T/C [9] was 94 % of control and the T/C [10] was 95 % of control.
With CC1(C(=O)O)CCCC2(C)C3=CC(=O)OC3(OO)CCC12 (stereo not given) the T/C (dose: 12.5 mg/kg/injection, schedule: Q01DX009 (ip), vehicle: saline) was 104 % of control, the T/C (dose: 25.0 mg/kg/injection, schedule: Q01DX009 (ip), vehicle: saline) was 101 % of control and the T/C [7] was 101 % of control.
In the case of C1CCC2(CC1)NCCO2, the T/C (dose: 25.0 mg/kg/injection, schedule: Q01DX005 (ip), vehicle: suspension in saline) is reported as 98 % of control, the T/C (dose: 50.0 mg/kg/injection, schedule: Q01DX005 (ip), vehicle: suspension in saline) is reported as 93 % of control and the T/C (dose: 100.0 mg/kg/injection, schedule: Q01DX005 (ip), vehicle: suspension in saline) is reported as 94 % of control. For the same molecule, the T/C (dose: 200.0 mg/kg/injection, schedule: Q01DX005 (ip), vehicle: suspension in saline) was 109 % of control and the T/C (dose: 400.0 mg/kg/injection, schedule: Q01DX005 (ip), vehicle: suspension in saline) was 98 % of control.
In the case of CN(C)CCN(C)CCN1C(=O)c2ccccc2C1=O, the T/C (dose: 100.0 mg/kg/injection, schedule: Q04DX002 (ip), vehicle: saline) is reported as 102 % of control, the T/C (dose: 200.0 mg/kg/injection, schedule: Q04DX002 (ip), vehicle: saline) is reported as 100 % of control and the T/C (dose: 400.0 mg/kg/injection, schedule: Q04DX002 (ip), vehicle: saline) is reported as 100 % of control.
